Numbers after ± are expanded uncertainties.
Assay: xn = mol fraction of the nth substance listed
Details: Gas, single sinker densimeter

Compound `F/C=C/C(F)(F)F` [trans-1,3,3,3-tetrafluoropropene] + CCC has a mass density (283.19 K, 198.03 kPa, x1 = 0.168) of 4.884 ± 0.011 kg/m3, a mass density (283.19 K, 220.83 kPa, x1 = 0.5076) of 7.8406 ± 0.016 kg/m3 and a mass density (283.19 K, 312.57 kPa, x1 = 0.168) of 7.9025 ± 0.013 kg/m3. It also gave a mass density (283.19 K, 369.65 kPa, x1 = 0.5076) of 13.6268 ± 0.018 kg/m3, a mass density (283.19 K, 411.95 kPa, x1 = 0.168) of 10.6601 ± 0.015 kg/m3 and a mass density (283.19 K, 498.32 kPa, x1 = 0.5076) of 19.0511 ± 0.02 kg/m3. The mass density (283.19 K, 515.38 kPa, x1 = 0.168) was 13.6875 ± 0.018 kg/m3, the mass density (283.19 K, 612.31 kPa, x1 = 0.168) was 16.7013 ± 0.018 kg/m3 and the mass density (283.2 K, 100.73 kPa, x1 = 0.679) was 4.0148 ± 0.017 kg/m3. The mass density (283.2 K, 101.73 kPa, x1 = 0.5076) was 3.5184 ± 0.015 kg/m3, the mass density (283.2 K, 202.42 kPa, x1 = 0.679) was 8.2655 ± 0.018 kg/m3 and the mass density (283.2 K, 307.97 kPa, x1 = 0.679) was 12.9389 ± 0.02 kg/m3. For the same compound, the mass density (283.21 K, 409.61 kPa, x1 = 0.679) was 17.7339 ± 0.021 kg/m3, the mass density (283.23 K, 209.78 kPa, x1 = 0.8949) was 10.0762 ± 0.021 kg/m3 and the mass density (283.23 K, 328.84 kPa, x1 = 0.8949) was 16.4078 ± 0.023 kg/m3. It also gave a mass density (283.24 K, 102.25 kPa, x1 = 0.8949) of 4.7652 ± 0.02 kg/m3, a mass density (288.24 K, 101.08 kPa, x1 = 0.3426) of 2.9277 ± 0.013 kg/m3 and a mass density (288.24 K, 229.6 kPa, x1 = 0.3426) of 6.8193 ± 0.013 kg/m3. The mass density (288.25 K, 344.87 kPa, x1 = 0.3426) was 10.4999 ± 0.015 kg/m3, the mass density (288.25 K, 452.7 kPa, x1 = 0.3426) was 14.1363 ± 0.017 kg/m3 and the mass density (288.25 K, 583.57 kPa, x1 = 0.3426) was 18.8469 ± 0.02 kg/m3. The mass density (288.25 K, 689.73 kPa, x1 = 0.3426) was 22.9563 ± 0.022 kg/m3, the mass density (288.26 K, 595.72 kPa, x1 = 0.168) was 15.7412 ± 0.017 kg/m3 and the mass density (288.26 K, 711.04 kPa, x1 = 0.168) was 19.385 ± 0.02 kg/m3. The mass density (288.27 K, 213.38 kPa, x1 = 0.168) was 5.1751 ± 0.011 kg/m3, the mass density (288.27 K, 334.82 kPa, x1 = 0.168) was 8.3244 ± 0.013 kg/m3 and the mass density (288.27 K, 445.46 kPa, x1 = 0.168) was 11.3478 ± 0.015 kg/m3. It also gave a mass density (288.28 K, 101.56 kPa, x1 = 0.168) of 2.4124 ± 0.01 kg/m3, a mass density (288.29 K, 101.07 kPa, x1 = 0.5076) of 3.4268 ± 0.015 kg/m3 and a mass density (288.29 K, 220.99 kPa, x1 = 0.5076) of 7.6809 ± 0.015 kg/m3. It also gave a mass density (288.29 K, 444.05 kPa, x1 = 0.5076) of 16.2865 ± 0.019 kg/m3, a mass density (288.29 K, 578.73 kPa, x1 = 0.5076) of 22.0366 ± 0.022 kg/m3 and a mass density (288.3 K, 101.4 kPa, x1 = 0.679) of 3.9663 ± 0.017 kg/m3. For the same compound, the mass density (288.3 K, 227.2 kPa, x1 = 0.679) was 9.1436 ± 0.018 kg/m3, the mass density (288.3 K, 333.95 kPa, x1 = 0.5076) was 11.9154 ± 0.017 kg/m3 and the mass density (288.31 K, 348.56 kPa, x1 = 0.679) was 14.4714 ± 0.02 kg/m3. It also gave a mass density (288.31 K, 484.09 kPa, x1 = 0.679) of 20.8941 ± 0.022 kg/m3, a mass density (288.32 K, 385.31 kPa, x1 = 0.8949) of 19.104 ± 0.023 kg/m3 and a mass density (288.34 K, 101.12 kPa, x1 = 0.8949) of 4.6234 ± 0.02 kg/m3. For the same compound, the mass density (288.34 K, 236.83 kPa, x1 = 0.8949) was 11.2187 ± 0.021 kg/m3, the mass density (293.25 K, 588.13 kPa, x1 = 0.3426) was 18.534 ± 0.019 kg/m3 and the mass density (293.25 K, 709.61 kPa, x1 = 0.3426) was 23.0845 ± 0.022 kg/m3. It also gave a mass density (293.26 K, 208.73 kPa, x1 = 0.3426) of 6.0545 ± 0.013 kg/m3, a mass density (293.26 K, 452.62 kPa, x1 = 0.3426) of 13.8135 ± 0.016 kg/m3 and a mass density (293.27 K, 101.3 kPa, x1 = 0.3426) of 2.8816 ± 0.012 kg/m3. It also gave a mass density (293.27 K, 329.2 kPa, x1 = 0.3426) of 9.782 ± 0.014 kg/m3, a mass density (293.28 K, 208.37 kPa, x1 = 0.5076) of 7.0836 ± 0.015 kg/m3 and a mass density (293.28 K, 290.55 kPa, x1 = 0.168) of 7.0037 ± 0.012 kg/m3. It also gave a mass density (293.28 K, 407.44 kPa, x1 = 0.168) of 10.0558 ± 0.014 kg/m3, a mass density (293.29 K, 98.9 kPa, x1 = 0.5076) of 3.2914 ± 0.014 kg/m3 and a mass density (293.29 K, 100.13 kPa, x1 = 0.168) of 2.3324 ± 0.01 kg/m3. The mass density (293.29 K, 198.29 kPa, x1 = 0.168) was 4.6983 ± 0.011 kg/m3, the mass density (293.29 K, 317.13 kPa, x1 = 0.5076) was 11.031 ± 0.017 kg/m3 and the mass density (293.29 K, 429.96 kPa, x1 = 0.5076) was 15.3484 ± 0.018 kg/m3. For the same compound, the mass density (293.29 K, 515.52 kPa, x1 = 0.168) was 13.0247 ± 0.015 kg/m3, the mass density (293.29 K, 530.45 kPa, x1 = 0.5076) was 19.4174 ± 0.021 kg/m3 and the mass density (293.29 K, 612.66 kPa, x1 = 0.168) was 15.8319 ± 0.017 kg/m3. The mass density (293.29 K, 715.58 kPa, x1 = 0.168) was 18.9724 ± 0.02 kg/m3, the mass density (293.29 K, 825.52 kPa, x1 = 0.168) was 22.5539 ± 0.02 kg/m3 and the mass density (293.3 K, 210.11 kPa, x1 = 0.679) was 8.2494 ± 0.017 kg/m3. For the same compound, the mass density (293.3 K, 641.29 kPa, x1 = 0.5076) was 24.1912 ± 0.022 kg/m3, the mass density (293.31 K, 101.19 kPa, x1 = 0.679) was 3.8833 ± 0.016 kg/m3 and the mass density (293.31 K, 324.6 kPa, x1 = 0.679) was 13.0914 ± 0.019 kg/m3. The mass density (293.32 K, 432.86 kPa, x1 = 0.679) was 17.9448 ± 0.021 kg/m3, the mass density (293.32 K, 546.41 kPa, x1 = 0.679) was 23.3906 ± 0.023 kg/m3 and the mass density (293.34 K, 454.67 kPa, x1 = 0.8949) was 22.4737 ± 0.024 kg/m3. It also gave a mass density (293.35 K, 100.25 kPa, x1 = 0.8949) of 4.4951 ± 0.019 kg/m3, a mass density (293.35 K, 226.08 kPa, x1 = 0.8949) of 10.452 ± 0.02 kg/m3 and a mass density (293.35 K, 345.6 kPa, x1 = 0.8949) of 16.5159 ± 0.022 kg/m3.

Source: the NIST ThermoML archive (doi:10.1016/j.fluid.2015.09.010)
